Tests used:
Test in all cases: relative viability (nuclei count vs DMSO), 5 days (fraction); higher = more cells survive
Bicalutamide + OSI-027 = compound: CC(O)(CS(=O)(=O)c1ccc(F)cc1)C(=O)Nc1ccc(C#N)c(C(F)(F)F)c1 [Bicalutamide] + COc1cccc2cc(-c3nc([C@H]4CC[C@H](C(=O)O)CC4)n4ncnc(N)c34)[nH]c12 [OSI-027] (partner 0.5 µM)
In short: (§1)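 Five library-drug doses in √10 steps were combined with a fixed anchor-drug dose, or a single drug was given alone, by pin tool to lung cancer cell lines in 1536-well plates the day after seeding. Nuclei were stained and counted after 5 days. Relative viability is the nuclei count in treated wells over that in vehicle wells, taken as the median of duplicate plates.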

Bicalutamide + Olaparib = compound: CC(O)(CS(=O)(=O)c1ccc(F)cc1)C(=O)Nc1ccc(C#N)c(C(F)(F)F)c1 [Bicalutamide] + O=C(c1cc(Cc2n[nH]c(=O)c3ccccc23)ccc1F)N1CCN(C(=O)C2CC2)CC1 [Olaparib] (partner 8 µM)
In short: as §1

[1] = compound: CC(O)(CS(=O)(=O)c1ccc(F)cc1)C(=O)Nc1ccc(C#N)c(C(F)(F)F)c1 [Bicalutamide] + Nc1ncn([C@H]2C[C@H](O)[C@@H](CO)O2)c(=O)n1 [Decitabine] (partner 2 µM)
In short: as §1

[2] = compound: C(C(=O)C(=O)O)Br [Bromopyruvate] + Nc1nc2[nH]cc(CCc3ccc(C(=O)N[C@@H](CCC(=O)O)C(=O)O)cc3)c2c(=O)[nH]1 [Pemetrexed] (partner 0.2 µM)
In short: as §1

Cell Line | relative viability (Bicalutamide + OSI-027; first compound 0.08 µM) | relative viability (Bicalutamide + OSI-027; first compound 0.253 µM) | relative viability (Bicalutamide + OSI-027; first compound 0.8 µM) | relative viability (Bicalutamide + OSI-027; first compound 2.53 µM) | relative viability (Bicalutamide + Olaparib; first compound 0.08 µM) | relative viability (Bicalutamide + Olaparib; first compound 0.253 µM) | relative viability (Bicalutamide + Olaparib; first compound 0.8 µM) | relative viability (Bicalutamide + Olaparib; first compound 2.53 µM) | relative viability ([1]; first compound 0.08 µM) | relative viability ([1]; first compound 0.253 µM) | relative viability ([1]; first compound 0.8 µM) | relative viability ([1]; first compound 2.53 µM) | relative viability ([2]; first compound 1 µM) | relative viability ([2]; first compound 3.162 µM) | relative viability ([2]; first compound 10 µM) | relative viability ([2]; first compound 31.62 µM) | relative viability ([2]; first compound 100 µM)
ABC-1 | 0.46 | 0.448 | 0.45 | 0.454 | 0.815 | 0.975 | 1.21 | 1.01 | 1.25 | 0.929 | 1.23 | 0.847 |  |  |  |  | 
SW 900 | 0.498 | 0.531 | 0.572 | 0.347 | 0.798 | 0.721 | 1.21 | 0.803 | 0.416 | 0.413 | 0.5 | 0.476 | 0.487 | 0.463 | 0.555 | 0.446 | 0.472
PC-14 | 0.825 | 0.697 | 1.6 | 0.606 | 0.346 | 0.3 | 0.274 | 0.271 | 0.243 | 0.182 | 0.239 | 0.204 | 0.141 | 0.143 | 0.14 | 0.154 | 0.123
NCI-H1648 |  | 0.299 | 0.29 | 0.225 |  |  | 0.775 | 0.949 |  |  | 0.475 | 0.458 | 0.661 | 0.813 | 0.689 | 0.651 | 0.728
A549 |  |  |  |  | 0.355 | 0.353 | 0.42 | 0.302 | 0.351 | 0.271 | 0.259 | 0.248 |  |  |  |  | 
A-427 | 0.489 | 0.479 | 0.584 | 0.398 | 0.704 | 0.692 | 0.842 | 0.707 | 0.608 | 0.533 | 0.666 | 0.562 | 1.05 | 0.975 | 1.05 | 0.863 | 1.07
NCI-H1792 | 0.731 | 0.634 | 0.855 | 0.768 | 0.493 | 0.365 | 0.39 | 0.257 | 0.543 | 0.466 | 0.618 | 0.548 | 0.904 | 0.997 | 0.699 | 0.894 | 0.983
LCLC-97TM1 | 0.598 | 0.37 | 0.627 | 0.422 | 0.356 | 0.363 | 0.434 | 0.507 | 0.222 | 0.202 | 0.305 | 0.234 | 0.182 | 0.152 | 0.187 | 0.164 | 0.195
NCI-H1703 |  |  |  |  | 0.431 | 0.387 | 0.391 | 0.231 |  |  |  |  |  |  |  |  | 
LCLC-103H | 0.464 | 0.425 | 0.476 | 0.451 | 0.775 | 0.785 | 0.835 | 0.75 | 0.714 | 0.717 | 0.717 | 0.756 | 0.468 | 0.465 | 0.472 | 0.446 | 0.48
RERF-LC-KJ | 0.679 | 0.56 | 0.563 | 0.543 | 0.979 | 1.04 | 0.962 | 0.768 | 0.745 | 0.631 | 0.837 | 0.66 | 0.49 | 0.507 | 0.457 | 0.49 | 0.468

— the supplement of paper PMC10307832
